Results as given in US12188932B2, “Method for high throughput peptide-MHC affinity screening for TCR ligands” (priority 2018, dated 2025).

Test system: GloResponse NFAT-luc2 Jurkat cells
Conditions: T2 loaded with 100 nM peptide, 18 hours
Description: T cell activation assays using GloResponse™ NFAT-luc2 Jurkat cells and peptide loaded T2 target cells were performed according to manufacturer instructions. In short, T2 cells were harvested from continuous cell culture, washed and resuspended in T2 culture medium at a concentration of 3.3×10^6 cells/ml and transferred to 96 well round bottom plates (Corning Costar®, Cat. Nr. 3799). Peptide in DMSO, 0.5% TFA was added to a final concentration of 100 nM and the suspension incubated for 2 to 3 hours at 37° C., 5% CO2. bsTCR formulated in PBS was diluted in T2 culture medium to desired concentration and 25 μl of the respective dilution was distributed to white 96 well flat bottom plates (Brand, Cat. Nr. 781965). […] After the incubation period 75 μl of Bio-Glo™ luciferase reagent was added to each well and the plates incubated for minutes at 300 rpm on a plate shaker in the dark before reading luminescence at a 0.5 second integration time with a Synergy2 plate reader (Biotek). Luminescence as measured in relative light units (RLU) was converted to fold induction for each well by dividing measured RLU through those of control wells.
T2 cells were loaded separately with respective peptides from the positional scanning library at a concentration of 100 nM and subsequently co-incubated with Jurkats and different bsTCR concentrations for 18 hours before readout.

ALYNVLAKV
T cell activation (luminescence fold induction over background): reactive in the reporter assay
